Data from patent US4760089A, “Irreversible dopamine-β-hydroxylase inhibitors” (SmithKline Beckman Corporation, priority 1985, dated 1988).
Where a name gives a salt, the structure may show the parent alone. Read-outs that look alike come from different tables or passages of the source.

Experiments:
[1] = test system: peripheral dopamine (DA) and norepinephrine (NE) levels; assay: In vivo effect on peripheral dopamine and norepinephrine levels; set-up: species or system spontaneously hypertensive rats; settings: twice; for DA / NE: per gram of tissue, about 2 hours after second dose
Description: One of the 2-cyano-2-phenethylamine compounds also was tested for its effect in vivo on peripheral dopamine (DA) and norepinephrine (NE) levels substantially by the procedure of DaPrada and Zurcher, Life Sciences, 19, 1161, (1976). Groups of five spontaneously hypertensive rats were dosed orally, twice, the second dose approximately 18 hours after the first, and were sacrificed about 2 hours after the second dose.

[2] = test system: spontaneously hypertensive rats; assay: Mean arterial blood pressure in spontaneously hypertensive rats; format: in vivo; settings: 100 mg/kg intraperitoneally
Description: Further, spontaneously hypertensive rats were dosed with a suspension or solution of 2-cyano-2-phenethylamine hydrochloride at a dose of 100 mg/kg intraperitoneally, and mean arterial blood pressure was monitored for 260 minutes using indwelling cannulae positioned in the tail arteries. Approximate thirty percent reductions in blood pressure were observed thirty to forty minutes following administration of this compound. At 260 minutes after administration of this compound, blood pressure remained reduced by approximately twenty percent when compared to vehicle-treated controls.

[3] = molecular target: T1, dopamine-β-hydroxylase (DBH) (Bos taurus, UniProt P15101); assay: Dialysis of enzyme-inhibitor complexes to test reversibility of DBH inhibition; format: biochemical; settings: for activity at 1000 µM: tyramine alone = 100%; for Amount of Product Formed Pre-Dialysis: approx. 3 hour incubation with DBH; for Amount of Product Formed Post-Dialysis: dialyzed overnight, pH 5.5 acetate buffer
T1 sequence (P15101 1-610): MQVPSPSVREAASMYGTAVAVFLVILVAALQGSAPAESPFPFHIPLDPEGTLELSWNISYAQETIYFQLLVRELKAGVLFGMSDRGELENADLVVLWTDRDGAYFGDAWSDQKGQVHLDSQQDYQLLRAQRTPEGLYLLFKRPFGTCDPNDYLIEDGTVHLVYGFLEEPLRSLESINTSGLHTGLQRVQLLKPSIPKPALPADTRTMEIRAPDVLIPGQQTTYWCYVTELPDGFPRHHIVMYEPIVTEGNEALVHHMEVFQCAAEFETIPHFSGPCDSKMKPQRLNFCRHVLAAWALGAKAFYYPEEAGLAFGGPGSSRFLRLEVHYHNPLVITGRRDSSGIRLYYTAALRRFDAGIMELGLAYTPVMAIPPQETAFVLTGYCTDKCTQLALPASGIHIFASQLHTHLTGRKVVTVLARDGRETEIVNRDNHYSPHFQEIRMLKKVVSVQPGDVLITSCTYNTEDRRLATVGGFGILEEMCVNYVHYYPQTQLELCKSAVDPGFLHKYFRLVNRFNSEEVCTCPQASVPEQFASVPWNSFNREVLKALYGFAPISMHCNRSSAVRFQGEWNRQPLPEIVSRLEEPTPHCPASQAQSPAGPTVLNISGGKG
Description: (§1) Presently invented also are methods of producing DBH inhibition in mammals, including humans, by administering an effective amount of 2-cyano-2-phenethylamine or a 2-cyano-2-(hydroxyphenyl)ethylamine compound. […] DBH activity was assayed by a standard procedure for measuring the conversion of tyramine to octopamine in the presence of DBH. J. J. Pisano, et al., Biochim. Biophy. Acta, 43, 566-68 (1960). Octopamine was assayed following sodium periodate oxidation to p-hydroxybenzaldehyde by measuring spectrophotometric absorbance at 330 nm.
Dialysis of enzyme-inhibitor complexes was selected as the approach for testing the reversibility of the inhibition produced by these compounds. A known, reversible DBH inhibitor, fusaric acid, was utilized as a reference standard. Following approximate 3 hour incubation of DBH with one of the inhibitors, the rate of enzymatic conversion of tyramine to octopamine was measured by the standard procedure used in the enzyme kinetic analyses. Thereafter, the enzyme previously incubated with inhibitor was placed in a standard dialysis bag and dialyzed overnight against four changes of pH 5.5 acetate buffer. Following dialysis, the rate of enzymatic conversion of tyramine to octopamine again was measured.

[4] = molecular target: T1, dopamine-β-hydroxylase (DBH); assay: DBH enzyme inhibition kinetics, conversion of tyramine to octopamine; format: biochemical; settings: several inhibitor concentrations
Description: as §1
Further, the changing apparent rate constant and the unchanging maxiumum reaction rate indicate that the compounds useful in the presently invented method initially are competitive blockers of substrate-enzyme interactions.

DBH = settings: Runti et al., Il Farmaco Ed. Sci. 36, 260 (1980); cited from earlier work
[5] = Teresawa et al., Japan. Cir. J. 35, 339 (1971); cited from earlier work
[6] = Tyramine 10^-2 M and inhibitor 10^-3 M
[7] = Tyramine 10^-2 M and Fusaric Acid 10^-4 M

For `N#CC(CN)c1ccccc1` (stereo not shown) [2-cyano-2-phenethylamine hydrochloride], the “DA/NE Ratio” value ([1]; Experiment 1, 100 mg/kg orally) was 0.0716 ± 0.004, the DA ([1]; Experiment 1, 100 mg/kg orally) was 0.571 µg/g and the NE ([1]; Experiment 1, 100 mg/kg orally) was 7.96 µg/g. For the same molecule, the “DA/NE Ratio” value ([1]; Experiment 2, 100 mg/kg orally) was 0.0628 ± 0.0013, the DA ([1]; Experiment 2, 100 mg/kg orally) was 0.408 µg/g and the NE ([1]; Experiment 2, 100 mg/kg orally) was 6.47 µg/g. The “reduction in mean arterial blood pressure compared to vehicle-treated controls” value ([2]; at 260 minutes after administration) was “approximately twenty”, the “reduction in mean arterial blood pressure” value ([2]; thirty to forty minutes following administration) was “thirty” and the activity at 1000 µM ([3]; 3 h, Tyramine 10^-2 M and inhibitor 10^-3 M, read-out: DBH Activity Pre-Dialysis) was 8%. For the same molecule, the “Amount of Product Formed Pre-Dialysis” value [3, 6] was 15.7 nM, the “Amount of Product Formed Post-Dialysis” value [3, 6] was 10.5 nM and the activity at 1000 µM ([3]; Tyramine 10^-2 M and inhibitor 10^-3 M, read-out: DBH Activity Post-Dialysis) was 5.5%. For the same molecule, the “DBH activity versus inhibitor concentration (FIG. 1, double-reciprocal plot)” value [4] was “reductions in DBH activity were related directly to increasing 2-cyano-2-phenethylamine hydrochloride concentrations”.
For phenylpicolinic acid, the “DBH inhibitory activity relative to fusaric acid” value (DBH) is listed as “twice the inhibitory activity of fusaric acid”.
For `CCCCc1ccc(C(=O)O)nc1` [Fusaric Acid, reference compound], the toxic effect [5] is listed as “hepatotoxic”, the “DA/NE Ratio” value ([1]; Experiment 1, 50 mg/kg orally) is listed as 0.0994 ± 0.007 and the DA ([1]; Experiment 1, 50 mg/kg orally) is listed as 0.819 µg/g. For the same molecule, the NE ([1]; Experiment 1, 50 mg/kg orally) was 8.31 µg/g, the “DA/NE Ratio” value ([1]; Experiment 2, 50 mg/kg orally) was 0.112 ± 0.0055 and the DA ([1]; Experiment 2, 50 mg/kg orally) was 0.615 µg/g. The NE ([1]; Experiment 2, 50 mg/kg orally) was 5.82 µg/g, the activity at 100 µM ([3]; 3 h, read-out: DBH Activity Pre-Dialysis) was 2% and the “Amount of Product Formed Pre-Dialysis” value [3, 7] was 4.0 nM. For the same molecule, the “Amount of Product Formed Post-Dialysis” value [3, 7] was 169.0 nM and the activity at 100 µM ([3]; read-out: DBH Activity Post-Dialysis) was 89.2%.
